Here are results for 6 molecules from patent US7829305B2, “Method for monitoring the presence of biofilmforming microorganisms in paper industry” (Kemira Oyj, priority 2003, dated 2010).

The subject of the test is biofilms formed in a paper machine. The test is described as follows: Inactivation of biofilms pre-grown in situ on sampler pegs; re-growth of new biofilm in the culturing step, safranin staining, visual evaluation. The note with it: for formation of new biofilm during the culturing step after treatment of the biofilm on the pegs: biofilm grown 68 h in clear filtrate silo of neutral fine paper machine at 52° C., treatment 1 to 50 ppm (active substance), stagnant 52° C., 2 h, culturing in R2-broth 250 rpm, 52° C., 17 h, safranin, evaluated visually. Type of test: cell-based. The source says:
In this experiment one embodiment of the sampler device of the invention is used to illustrate the method of the invention for determining the effect of several anti-biofilm agents in inactivation of biofilms formed in a paper machine.
In this embodiment the sampler device comprises 12 stainless steel pegs fixed from one end on a stainless steel lid. The lid with the pegs is presented in FIG. 1 together with a treatment plate with 12 wells adapted to receive the pegs when the lid is placed on the plate. Suitably the lid was designed to be complementary with the commercially available 12-well polystyrene plates.
Three sampler lids are immersed in the clear filtrate silo of a neutral fine paper machine and allowed to hang immersed in said filtrate at the temperature of 52° C. of the process water, for 68 h. Then the samplers are removed, rinsed once with sterilized tap water, and each lid is placed on a 12-well treatment plate so that the pegs with biofilms formed in situ in the process on the surface thereof are immersed in the treatment solution within the wells, each peg in one well, while being supported at the one end by the lid.
Each well of a treatment plate contains 3.5 ml of sterilized tap water alone (reference samples) or 3.5 ml of sterilized tap water together with an anti-biofilm agent at a concentration of 1 to 50 ppm (active substance). The maximum volume of the wells is used so that almost the whole length of the pegs will be exposed to the anti-biofilm agents (the treatment solution). The tested anti-biofilm agents are BCDMH (Bromo-chloro-5,5-dimethyl hydantoine), a mixture of 5-chloro-2-methyl-4-isothiazolin-3-one and 2-methyl-4-isothiazolin-3-one, THPS (tetrakis(hydroxy-methyl)phosphomiumsulphate, DBNPA (2,2-dibromo-2-cyanoacetamide), glutar-aldehyde, MBT (methylene-bis(thiocyanate)), BNPD (bromo-2-nitropropan-1,3-diol), all of which are commercially available.
The anti-biofilm treatment step is carried out by incubating the plates with the lid thereon stagnant at 52° C. for 2 h. After the treatment step the lids are removed from the plate and rinsed three times with sterilized tap water and then placed on the 12-well culturing plates, which are similar to the treatment plates, but the wells contain 2.5 ml of sterile R2-broth (Difco). The culturing plates (plate+lid with the pegs immersed in the wells) are shaken at 250 rpm, at 52° C., for 17 h.
Finally, the pegs and growth media are removed from the wells, the wells are rinsed once with tap water and the microbes adhered on the walls of the wells are stained with safranin. The amount of biofilm produced by the microbes that survived alive through the treatment step with anti-biofilm agents is evaluated visually.

Molecules are shown by their SMILES.

Turning to `N#CSCSC#N` [MBT, methylene-bis(thiocyanate)], the “formation of new biofilm during the culturing step after treatment of the biofilm on the pegs” value (“formation” for short) is given as “still capable to form new biofilm”.
Still for that read-out and setting: next, `O=S(=O)([O-])[O-].OC[P+](CO)(CO)CO.OC[P+](CO)(CO)CO` [THPS, tetrakis(hydroxy-methyl)phosphomiumsulphate]: “no new biofilm is formed”; `CC1(C)C(=O)N(Br)C(=O)N1Cl` [BCDMH, Bromo-chloro-5,5-dimethyl hydantoine]: “no new biofilm is formed”; `O=[N+]([O-])C(Br)(CO)CO` [BNPD, bromo-2-nitropropan-1,3-diol]: “still capable to form new biofilm”.
In the case of `N#CC(Br)(Br)C(N)=O` [DBNPA, 2,2-dibromo-2-cyanoacetamide], the “formation” value was “no new biofilm is formed”. For the setting “treatment 2 h at 52° C., culturing 17 h at 52° C. in R2-broth, concentration as active substance”, the “lowest concentration of anti-biofilm agent achieving prevention of re-growth of new biofilm in the culturing step” value is on record as 5 ppm.
In the case of `O=CCCCC=O` [glutaraldehyde], the “formation” value is on record as “no new biofilm is formed”.
